Assay results: patent US10464926B2, “Heterobicyclic compounds and their use for the treatment of tuberculosis” (OTSUKA PHARMACEUTICAL CO., LTD., priority 2014, dated 2019)

system: not given; assay: not given; conditions: not given

SMILES | melting point [°C]
COc1cc(F)c(N2CCC(O)(COc3ccc(F)c4c3CCC(=O)N4)CC2)c(F)c1 | 195.7 to 196.4
O=C1CCc2c(OCC3(O)CCN(c4cc(F)c(Cl)cc4F)CC3)ccc(Cl)c2N1 | 190.3 to 190.4
CCOc1cc(N2CCC(O)(COc3ccc(F)c4c3CCC(=O)N4)CC2)c(F)cc1Cl | 239.8 to 239.9
NC1(COc2ccc(F)c3c2CCC(=O)N3)CCN(c2ncc(F)cc2F)CC1 | 160.9 to 163.1
O=C1CCc2c(OCC3(O)CCN(c4ccc(OCC(F)(F)F)cc4F)CC3)ccc(Cl)c2N1 | 148.6 to 148.7
O=C1CCc2c(OC[C@]3(O)CCN(c4ccc(OC(F)F)cc4)C[C@H]3O)ccc(F)c2N1 | 163.1 to 164.6
O=C1CCc2c(OC[C@]3(O)CCN(c4ccc(Cl)cc4F)C[C@@H]3O)ccc(F)c2N1 | 198.6 to 198.8
CC(=O)O[C@@H]1CN(c2c(F)cc(Cl)cc2F)CC[C@@]1(O)COc1ccc(F)c2c1CCC(=O)N2 | 163 to 165
O=C1CCc2c(OCC3(O)CCN(c4c(Cl)cncc4Cl)CC3)ccc(F)c2N1 | 225.8 to 225.9
O=C1CCc2c(OCC3(O)CCN(c4cc([N+](=O)[O-])ccc4Cl)CC3)ccc(F)c2N1 | 204.8 to 205.4
O=C1CCc2c(OC[C@@]3(O)CCN(c4ncc(Cl)cc4Cl)C[C@@H]3O)ccc(F)c2N1 (relative stereo) | 202.6 to 204.8
O=C1CCc2c(OC[C@@]3(O)CCN(c4ccc(Cl)cc4F)C[C@@H]3O)ccc(F)c2N1 (relative stereo) | 191.9 to 193.5
O=C1CCc2c(OC[C@@]3(O)CCN(c4c(F)cc(Cl)cc4F)C[C@@H]3O)cc(F)c(F)c2N1 (relative stereo) | 215 to 217
O=C1CCc2c(OC[C@]3(O)CCN(c4cc5c(cc4F)OC(F)(F)O5)C[C@H]3O)ccc(F)c2N1 (relative stereo) | 197.4 to 197.5
O=C1CCc2c(OC[C@]3(O)CCN(c4ccc(Br)cc4F)C[C@H]3O)cc(F)c(F)c2N1 (relative stereo) | 214 to 216
O=C1CCc2c(OC[C@]3(O)CCN(c4ccc(Br)cc4F)C[C@H]3O)cc(F)c(Cl)c2N1 (relative stereo) | 194
O=C1CCc2c(OC[C@@]3(O)CCN(c4cc(F)c(Cl)cc4F)C[C@H]3O)ccc(F)c2N1 (relative stereo) | 184 to 185
O=C1CCc2c(OC[C@]3(O)CCN(c4c(F)cc(Br)cc4F)C[C@@H]3O)ccc(F)c2N1 (relative stereo) | 209 to 210
O=C1CCc2c(OC[C@H]3CCN(c4cc(F)c(Cl)cc4F)C[C@@H]3O)ccc(F)c2N1 (relative stereo) | 168.9 to 172.7
CO[C@H]1CN(c2ncc(Cl)cc2Cl)CC[C@@]1(O)COc1ccc(F)c2c1CCC(=O)N2 (relative stereo) | 186 to 187

SMILES | melting point [°C]
CO[C@H]1CN(c2ncc(Cl)cc2Cl)CC[C@]1(O)COc1ccc(F)c2c1CCC(=O)N2 (relative stereo) | 162.8 to 164
C[C@H]1CN(c2ncc(Cl)cc2Cl)CC[C@@]1(O)COc1ccc(F)c2c1CCC(=O)N2 (relative stereo) | 222 to 223
N#C[C@H]1CN(c2ncc(Cl)cc2Cl)CC[C@@]1(O)COc1ccc(F)c2c1CCC(=O)N2 (relative stereo) | 206 to 207
C[C@]1(O)CN(c2ncc(Cl)cc2Cl)CC[C@]1(O)COc1ccc(F)c2c1CCC(=O)N2 (relative stereo) | 182.6 to 187.5
O=C1CCc2c(OC[C@]3(O)CCN(c4ccc(Cl)cc4F)C[C@@H]3F)ccc(F)c2N1 (relative stereo) | 190 to 191
O=C1CCc2c(OC[C@]3(O)CCN(c4ccc(Cl)cc4F)C[C@H]3F)ccc(F)c2N1 (relative stereo) | 194 to 195
O=C1CCc2c(OC[C@]3(O)CCN(c4ccc(F)cc4Cl)C[C@@H]3F)ccc(F)c2N1 (relative stereo) | 204 to 205
O=C1CCc2c(OC[C@]3(O)CCN(c4ccc(F)cc4Cl)C[C@H]3F)ccc(F)c2N1 (relative stereo) | 218 to 220
O=C1CCc2c(OCC3(O)[C@H](O)CN(c4c(F)cc(Cl)cc4F)C[C@H]3O)ccc(F)c2N1 (relative stereo) | 221.5 to 222
O=C1CCc2c(OC[C@]3(O)CCN(c4ccc(Br)cc4F)C[C@H]3O)ccc(Cl)c2N1 (relative stereo) [Example 269] | 190 to 192
O=C1CCc2c(OC[C@]3(O)CCN(c4c(F)cc(Cl)cc4F)C[C@H]3O)cc(F)c(Cl)c2N1 (relative stereo) [Example 277] | 201 to 204
O=C1CCc2c(OC[C@]3(O)CCN(c4c(F)cc(Br)cc4F)C[C@H]3O)ccc(F)c2N1 (relative stereo) [Example 301] | 191 to 193
O=C1CCc2c(OC[C@]3(O)CCN(c4c(F)cc(F)cc4Cl)C[C@H]3O)ccc(F)c2N1 (relative stereo) [Example 303] | 215 to 218
O=C1CCc2c(OC[C@]3(O)CCN(c4c(F)cc(F)cc4F)C[C@H]3O)ccc(F)c2N1 (relative stereo) [Example 305] | 198 to 199
O=C1CCc2c(OC[C@]3(O)CCN(c4c(F)cc(OCC(F)(F)F)cc4F)C[C@H]3O)ccc(F)c2N1 (relative stereo) [Example 310] | 201 to 202
O=C1CCc2c(OC[C@]3(O)CCN(c4c(F)cc(OC(F)F)cc4F)C[C@H]3O)ccc(F)c2N1 (relative stereo) [Example 314] | 167 to 169
CCOc1cc(F)c(N2CC[C@@](O)(COc3ccc(F)c4c3CCC(=O)N4)[C@H](O)C2)c(F)c1 (relative stereo) [Example 316] | 199 to 202
O=C1CCc2c(OC[C@]3(O)CCN(c4ccc(Cl)cc4F)C[C@H]3O)cc(F)c(F)c2N1 (relative stereo) [Example 330] | 220.5 to 221.3
O=C1CCc2c(OC[C@]3(O)CCN(c4ccc(Cl)cc4F)C[C@H]3O)ccc(Cl)c2N1 (relative stereo) [Example 334] | 195.5 to 195.6
O=C1CCc2c(OC[C@]3(O)CCN(c4ccc(F)cc4)C[C@H]3O)ccc(F)c2N1 (relative stereo) [Example 336] | 182.4 to 182.5

SMILES | melting point [°C]
O=C1CCc2c(OC[C@]3(O)CCN(c4c(F)cc(Br)cc4F)C[C@H]3O)ccc(Cl)c2N1 (relative stereo) [Example 339] | 195 to 198
O=C1CCc2c(cccc2OC[C@]2(O)CCN(c3c(F)cc(Cl)cc3F)C[C@H]2O)N1 (relative stereo) [Example 349] | 233
O=c1ccc2c(OC[C@]3(O)CCN(c4c(F)cc(Cl)cc4F)C[C@H]3O)ccc(F)c2[nH]1 (relative stereo) [Example 371] | 232
O=C1CCc2c(OC[C@]3(O)CCN(c4c(F)cc(Cl)cc4F)C[C@@H]3F)ccc(F)c2N1 (relative stereo) [Example 439] | 223 to 224
O=C1CCc2c(OC[C@]3(O)CCN(c4c(F)cc(Cl)cc4F)C[C@H]3F)ccc(F)c2N1 (relative stereo) [Example 440] | 222 to 223
O=C1CCc2c(OC[C@]3(O)CCN(c4ccc(Br)cc4F)C[C@H]3O)ccc(Cl)c2N1 [Example 271] | 183 to 184
O=C1CCc2c(OC[C@]3(O)CCN(c4c(F)cc(Cl)cc4F)C[C@H]3O)cc(F)c(Cl)c2N1 [Example 278] | 192 to 194
O=C1CCc2c(OC[C@]3(O)CCN(c4c(F)cc(Br)cc4F)C[C@H]3O)ccc(F)c2N1 [Example 302] | 197 to 198
O=C1CCc2c(OC[C@]3(O)CCN(c4c(F)cc(F)cc4Cl)C[C@H]3O)ccc(F)c2N1 [Example 304] | 188 to 189
O=C1CCc2c(OC[C@]3(O)CCN(c4c(F)cc(F)cc4F)C[C@H]3O)ccc(F)c2N1 [Example 306] | 191 to 192
O=C1CCc2c(OC[C@]3(O)CCN(c4c(F)cc(OCC(F)(F)F)cc4F)C[C@H]3O)ccc(F)c2N1 [Example 311] | 187
O=C1CCc2c(OC[C@]3(O)CCN(c4c(F)cc(OC(F)F)cc4F)C[C@H]3O)ccc(F)c2N1 [Example 315] | 166
CCOc1cc(F)c(N2CC[C@@](O)(COc3ccc(F)c4c3CCC(=O)N4)[C@H](O)C2)c(F)c1 [Example 317] | 176 to 178
O=C1CCc2c(OC[C@]3(O)CCN(c4ccc(Cl)cc4F)C[C@H]3O)cc(F)c(F)c2N1 [Example 324] | 192.6 to 193.4
O=C1CCc2c(OC[C@]3(O)CCN(c4c(F)cc(Br)cc4F)C[C@H]3O)ccc(Cl)c2N1 [Example 326] | 203.6 to 203.7
O=C1CCc2c(OC[C@]3(O)CCN(c4ccc(Cl)cc4F)C[C@H]3O)ccc(Cl)c2N1 [Example 328] | 185 to 186.4
O=C1CCc2c(OC[C@]3(O)CCN(c4ccc(F)cc4)C[C@H]3O)ccc(F)c2N1 [Example 337] | 185.2 to 185.3
O=c1ccc2c(OC[C@]3(O)CCN(c4c(F)cc(Cl)cc4F)C[C@H]3O)ccc(F)c2[nH]1 [Example 367] | 247.4 to 247.5

system: Mycobacterium tuberculosis (M. tuberculosis Kurono); assay: Antibacterial test (agar dilution method), M. tuberculosis Kurono; format: cell-based; conditions: Mycobacterium tuberculosis, 336 h; 7H11 agar medium, about 10^6 CFU/mL, 37° C. for 14 days; read-out: Minimum inhibitory concentration (MIC) kurono

SMILES | MIC [µg/mL]
O=c1ccc2c(OC[C@]3(O)CCN(c4ccc(Br)cc4F)C[C@H]3O)ccc(F)c2[nH]1 (relative stereo) [Example 369, 5-{[(3R*,4R*)-1-(4-Bromo-2-fluorophenyl)-3,4-dihydroxypiperidin-4-yl]methoxy}-8-fluoroquinolin-2(1H)-one] | < 0.39
O=C1CCc2c(OC[C@H]3CCN(c4ccc(Cl)cc4F)C[C@@H]3O)ccc(F)c2N1 (relative stereo) [Example 419, 5-{[(3R*,4R*)-1-(4-Chloro-2-fluorophenyl)-3-hydroxypiperidin-4-yl]methoxy}-8-fluoro-3,4-dihydroquinolin-2(1H)-one] | < 0.39
O=C1CCc2c(OC[C@]3(O)CC[C@@H](c4ccc(Cl)cc4F)C[C@H]3O)ccc(F)c2N1 (relative stereo) [Example 471, 5-{[(1R*,2R*,4R*)-4-(4-Chloro-2-fluorophenyl)-1,2-dihydroxycyclohexyl]methoxy}-8-fluoro-3,4-dihydroquinolin-2(1H)-one] | < 0.39
